test system: primary human T cells; assay: Genome-wide SLICE pooled CRISPR screen: CFSE-sorted proliferation after TCR stimulation; format: cell-based; conditions: log2 fold-change of sgRNA, dividing over non-dividing cells; positive hits from GW screen
Text: To take full advantage of this platform, we scaled-up from the targeted pilot screen to genome-wide (GW) scale (Doench et al., 2016), transducing a library of 77,441 sgRNAs (19,114 genes) into T cells from two healthy donors. After confirming successful transduction of these primary human T cells (FIG. 8,A-B), the cells were re-stimulated and then FACS sorted into non-proliferating and highly-proliferating populations based on CFSE levels (FIG. 8C and Experimental Procedures). MAGeCK software (Li et al., 2014) was used to systematically identify genes that are positively or negatively selected in the proliferating population of T cells. Top positive and negative regulators from the pilot screen were confirmed in both biological replicates of the GW screen along with numerous other hits (FIG. 2A, B). To hone the list of top candidates, we performed an independent secondary screen in cells from two additional human blood donors. The results were well correlated between the primary and secondary screens (FIG. 2C). Furthermore, integrated analysis of the two independent screens performed on a total of four human blood donors provided improved power for target discovery, particularly for negative regulators of T cell proliferation (FIG. 8D). To confirm that hits are in fact dependent on TCR stimulation, we performed GW screens with increasing levels of TCR stimulation. […] The observed dose-response confirmed that the majority of the screen hits are dependent on the TCR stimulus and serve to tune resulting proliferative responses. Taken together these screens identified dozens of genetic perturbations that positively and negatively modulate T cell proliferation.
24 hours post stimulation, lentivirus was added directly to cultured T cells at a 1:300 v/v ratio and gently mixed by tilting. Following 24 hours, cells were collected, pelleted, and resuspended in Lonza electroporation buffer P3 (Lonza, Cat #V4XP-3032) at 20e6 cells/100 μl. Next, Cas9 protein (MacroLab, Berkeley, 40 μM stock) was added to cell suspension at 1:10 v/v ratio. Cells were electroporated at 20e6 cells per cuvette using the pulse code EH115 (Lonza, cat #VVPA-1002). The total number of cells for electroporation was scaled as required. Immediately after electroporation, 1 mL of pre-warmed media was added to each cuvette and cuvettes were placed at 37 degrees for 20 minutes. Cells were then transferred to culture vessels in X-Vivo media containing 50 U/ml IL-2 at 1e6 cells/ml in appropriate tissue culture vessels. Cells were expanded every two days, adding fresh media with IL-2 at 50 U/ml and maintaining the cell density at 1e6 cells/ml.
Cultured cells were collected, spun, washed with PBS, and then resuspended at 1-10 million cells/ml in PBS. CFSE (Biolegend, Cat #423801) was prepared per the manufacturer's protocol to make a 5 mM stock solution in DMSO. This stock solution was diluted 1:1000 in PBS for a 5 μM working solution, and then added in a 1:1 v/v ratio to cell suspension. After mixing, cells were incubated for 5 minutes in the dark at room temperature. The stain was then quenched with a volume of media that was at least 5× the stain volume (e.g. 2 ml+10 ml), and incubated for one minute at room temperature in the dark. Cells were then spun down and resuspended in media prior to restimulation.
PBMCs from multiple human healthy human donors were isolated from TRIMA residuals (see methods). TRIMA residuals were purchased from Blood Centers of the Pacific. After CD8 T cells isolation as above (Day 0), cells were rested in X-Vivo media overnight and then stimulated with plate-bound anti-human CD3/CD28 and IL-2 at 50 U/mL the following day (Day 1). 24 hours after stimulation (Day 2), cells were transduced with concentrated lentivirus encoding the pooled sgRNA library (see methods). […] after transduction (Day 3), cells were electroporated with CAS9 protein (methods). […]

Point of comparison: “CCGCTTTCCAGTGACCGACG (listed as DNA, chemistry not fully specified) [SEQ ID NO: 21, sgRNA targeting FIBP]”, “LFC (~effect magnitude)” value 0.5586. Against it:
- AAGCGTCAAAAGTCTGCCAG (chemistry not given here) [SEQ ID NO: 9, sgRNA targeting CD5] — lower, 0.5512
- ACGGACATGAAGCAATATCA (listed as DNA, chemistry not fully specified) [SEQ ID NO: 34, sgRNA targeting TMEM222] — higher, 1.0461
- AGAGCATTATGGGCAGACAG (listed as DNA, chemistry not fully specified) [SEQ ID NO: 22, sgRNA targeting GNA13] — lower, 0.3825
- AGATATCACACATTACAGTG (listed as DNA, chemistry not fully specified) [SEQ ID NO: 25, sgRNA targeting RASA2] — higher, 0.861
- AGGATCGACTTGTGGAACAA (listed as DNA, chemistry not fully specified) [SEQ ID NO: 27, sgRNA targeting RASA2] — lower, 0.4134
- AGGCTCCAGGAATGTCCGCG (listed as DNA, chemistry not fully specified) [SEQ ID NO: 20, sgRNA targeting DGKZ] — lower, 0.4227
- AGGTTCCAGGTCCGATCCAG (listed as DNA, chemistry not fully specified) [SEQ ID NO: 10, sgRNA targeting CD8A] — higher, 0.8084
- AGTTCTACTACAGACCCCCG (chemistry not given here) [SEQ ID NO: 12, sgRNA targeting CDKN1B] — higher, 0.8623
- CAAGTACCGACGCGCCAGCG (listed as DNA, chemistry not fully specified) [SEQ ID NO: 23, sgRNA targeting MEF2D] — higher, 0.7255
- CAGCACTAGCAGTGGCACGG (chemistry not given here) [SEQ ID NO: 15, sgRNA targeting DGKA] — higher, 0.722
- CATCATCCCTCACGGACCCG (listed as DNA, chemistry not fully specified) [SEQ ID NO: 24, sgRNA targeting MEF2D] — lower, 0.46
- CCACTTGTTAACAGAGACCG (listed as DNA, chemistry not fully specified) [SEQ ID NO: 38, sgRNA targeting TNFAIP3] — higher, 0.633
- CCAGTACAAACCCCAGAACG (listed as DNA, chemistry not fully specified) [SEQ ID NO: 40, sgRNA targeting UBASH3A] — higher, 0.6566
- CCCCGTGCAGCGAGTCAGAG (listed as DNA, chemistry not fully specified) [SEQ ID NO: 18, sgRNA targeting DGKZ] — lower, 0.4938
- CCTGTACCCGAATAACCATG (listed as DNA, chemistry not fully specified) [SEQ ID NO: 4, sgRNA targeting ARIH2] — lower, 0.3813
- CGAAAAAGCAGTTCCGCTGG (listed as DNA, chemistry not fully specified) [SEQ ID NO: 30, sgRNA targeting SOCS1] — higher, 0.6088
- CGGCGTGCGAACGGAATGTG (listed as DNA, chemistry not fully specified) [SEQ ID NO: 31, sgRNA targeting SOCS1] — higher, 0.7842
- CGGCTCAGCTGGTATGACCC (chemistry not given here) [SEQ ID NO: 8, sgRNA targeting CD5] — higher, 1.4145
- CGTGCTGGTGGTTCGCCACG (listed as DNA, chemistry not fully specified) [SEQ ID NO: 39, sgRNA targeting UBASH3A] — higher, 1.0191
- CTCCCAAACTGACCTCTAGG (listed as DNA, chemistry not fully specified) [SEQ ID NO: 16, sgRNA targeting DGKA] — higher, 0.7081
- CTCTCCTCAGTACCACAGCA (listed as DNA, chemistry not fully specified) [SEQ ID NO: 19, sgRNA targeting DGKZ] — higher, 0.6587
- CTTGGCGTCCGTGAAGATGG (listed as DNA, chemistry not fully specified) [SEQ ID NO: 33, sgRNA targeting TCEB2] — higher, 0.6135
- GAACGCGCTGAGAGTCCGTG (listed as DNA, chemistry not fully specified) [SEQ ID NO: 3, sgRNA targeting AGO1] — higher, 0.8318
- GAATAAGATGTTCTACGCCG (listed as DNA, chemistry not fully specified) [SEQ ID NO: 17, sgRNA targeting DGKZ] — higher, 0.6282
- GACTCACTGAGACAAAGTAG (listed as DNA, chemistry not fully specified) [SEQ ID NO: 36, sgRNA targeting TMEM222] — higher, 0.8727
- GAGAACCTCGGAACATACGG (listed as DNA, chemistry not fully specified) [SEQ ID NO: 28, sgRNA targeting SMARCB1] — higher, 0.6271
- GAGCAGCGGCTGTACAAGGT (listed as DNA, chemistry not fully specified) [SEQ ID NO: 32, sgRNA targeting TCEB2] — higher, 1.0955
- GCAGGAAGACCGGCACGAAG (listed as DNA, chemistry not fully specified) [SEQ ID NO: 11, sgRNA targeting CD8A] — higher, 0.6365
- GGGCAAGTACGAGTGGCAAG (chemistry not given here) [SEQ ID NO: 13, sgRNA targeting CDKN1B] — higher, 0.9886
- GGGCCCCCAGTAGAATCCGC (listed as DNA, chemistry not fully specified) [SEQ ID NO: 29, sgRNA targeting SOCS1] — higher, 1.2551
- TATGCCATGAGTGCTCAGAG (listed as DNA, chemistry not fully specified) [SEQ ID NO: 37, sgRNA targeting TNFAIP3] — higher, 0.651
- TGAGGAGTACAAGCACCGCA (listed as DNA, chemistry not fully specified) [SEQ ID NO: 35, sgRNA targeting TMEM222] — higher, 1.3341
- TGCACAGAACTATCGTACCA (listed as DNA, chemistry not fully specified) [SEQ ID NO: 5, sgRNA targeting CBLB] — higher, 1.9597
- TGGACCACGAAGAGTTAACC (chemistry not given here) [SEQ ID NO: 14, sgRNA targeting CDKN1B] — higher, 0.8112
- TGTGGGATGTCGACTCCTAG (chemistry not given here) [SEQ ID NO: 7, sgRNA targeting CBLB] — higher, 0.7876
- TTAGCATCAAGGCATGCCAT (listed as DNA, chemistry not fully specified) [SEQ ID NO: 26, sgRNA targeting RASA2] — higher, 0.7258
- TTCCGCAAAATAGAGCCCCA (listed as DNA, chemistry not fully specified) [SEQ ID NO: 6, sgRNA targeting CBLB] — higher, 1.5917
